Source: publication PMC13349481 (ACS chemical biology, 2025)

Tested on: P-glycoprotein (Pgp, MDR1)
Assay: MDCKII-MDR1 permeability and Pgp efflux
Type: in vitro ADME
Details: dog

Papp A→B (MDCK-MDR1): 28.6 ×10⁻⁶ cm/s | Papp B→A (MDCK-MDR1): 28 ×10⁻⁶ cm/s | efflux ratio (MDCK-MDR1): 0.98 | recovery (MDCK-MDR1, recovery (%) A-B, MDCKII-MDR1, A-B): 109% | recovery (MDCK-MDR1, recovery (%) B-A, MDCKII-MDR1, B-A): 97.4%
SMILES: COCCc1ccc(OCC(O)CNC(C)C)cc1 (centres unmarked) [metoprolol]
